In this series the test system is synovial membrane of knee joints of rabbits. The series can be described thus: Intra-articular injection into rabbit knee joints, histological scoring of the synovial membrane after 24 hours. It is filed as in vivo. The note with it: for Prevention of irritation on intra-articular injection (in words): glycerol and glucitol in comparable circumstances, data not shown. As to the method: After 24 hours the rabbits were sacrificed, the joints were removed and histological studies of the synnovial membrane were carried out. Each of the following histological findings was scored 0 to 3. a. Synovial lining hyperplasia b. Presence of Fibrin c. Inflammatory infiltration d. Necrosis […]

Where [1] appears, read: rabbit knee, intra-articular injection of the solution itself, sacrifice 24 h after injection.
[2] abbreviates: rabbit knee, intra-articular injection of the solution itself, sacrifice 24 h after injection, sulphate.

Consider `OC[C@@H](O)[C@@H](O)[C@H](O)[C@@H](O)CO` [glucitol], for which the “Prevention of irritation on intra-articular injection (in words)” value (rabbit knee) is given as “lack of prevention of irritation”. Still for that read-out and setting: as for `OCC(O)CO` [glycerol], the entry is “lack of prevention of irritation”. For the molecule `OC[C@@H](O)[C@@H](O)[C@H](O)[C@H](O)CO` [5.4% Mannitol in distilled water, Mannitol], the “Histological score of synovial membrane (synovial lining hyperplasia, fibrin, inflammatory infiltration, necrosis, each scored 0 to 3), Mean” value (“Histological score of synovial membrane” for short) under setting [1] came out at 3.4. Under “rabbit knee”, the “Prevention of irritation on intra-articular injection (in words)” value is recorded as “does not prevent irritation”. As to “sodium Hyaluronate [1% sodium Hyaluronate in saline]”, where the note is “rabbit, in vivo”, the “Histological score of synovial membrane” value came to 1.0. `CCCCCCCCCCCCOS(=O)(=O)[O-].[Na+]` [0.2% SLS in saline, sodium lauryl sulphate]: under setting [2], the “Histological score of synovial membrane” value was found to be 1.4. Take `CCCCCCCCCCCCOS(=O)(=O)[O-].[Na+]` [0.5% SLS in saline (positive control), sodium lauryl sulphate]: the “Histological score of synovial membrane” value runs as follows: (rabbit knee, intra-articular injection of the solution itself, sacrifice 24 h after injection, listed as 0.5% SLS in saline, sulphate) 5.8; under setting [2], 5.8. In the case of `OC[C@@H](O)[C@H](O)[C@@H](O)CO` [4.5% Xylitol in distilled water, Xylitol], the “Histological score of synovial membrane” value under setting [1] came to 1.4.

For the origin of these results see patent US9913808B2, “Injectable pharmaceutical compositions for the treatment of joints” (priority 2010, dated 2018).
